Measured values from the NIST ThermoML archive (doi:10.1016/j.jct.2016.10.031).
± gives the expanded uncertainty stated by the source.

Test: Molar enthalpy of transition or fusion
Settings: Crystal; Adiabatic calorimetry

Molar enthalpy of transition or fusion: 4.802 ± 0.0406 kcal/mol
SMILES: CC(C)(C)c1ccc(Oc2ccc([N+](=O)[O-])cc2)cc1 [1-(tert-butyl)-4-(4-nitrophenoxy)benzene]
